# Laboratory results: publication PMC9519446, “Discovery of an Orally Active Benzoxaborole Prodrug Effective in the Treatment of Chagas Disease in Non-human Primates” (Nature microbiology, 2022)
# How the values were obtained:
# [1] = system: recombinant T. cruzi proteins; test: Luminex-based multiplex serological assay (IgG to recombinant T. cruzi proteins); type: in vivo, rhesus macaques (Macaca mulatta); conditions: for IgG response to G10 (36) / IgG response to Kn107 (20) / IgG response to Tc1 (3) / IgG response to Tc2 (6) / IgG response to Tc3 (11) / IgG response to Tc4 (16) / IgG response to Tc5 (22) / IgG response to Tc7 (27) / IgG response to Tc8 (31) / IgG response to Tc11 (35) / IgG response to Tc17 (51) / IgG response to Tc lysate (50): treated animal T19
# Protocol: (§1) Luminex-based multiplex serological assays were performed as previously described, [17]. For a number of smaller proteins, fusions of up to 2 individual genes are employed for some target proteins in order to expand the array of antibodies being detected while controlling costs and complexity of the assay. (TritrypDb.org identifiers: Tc1= fusion of TcBrA4_0116860 and TcYC6_0028190; Tc2= fusion of TcBrA4_0088420 and TcBrA4_0101960; Tc3 = fusion of TcBrA4_0104680 and TcBrA4_0101980; Tc4= fusion of TcBrA4_0028480 and TcBrA4_0088260; Tc5 = fusion of TcYC6_0100010 and TcBrA4_0074300; Tc7 = fusion of TcYC6_0083710 and TcBrA4_0130080; Tc8 = TcYC6_0037170; Tc11 = TcYC6_0124160; Tc17 = fusion of TcBrA4_0028230 and TcBrA4_0029760; Kn107 = TcCLB.508355.250; G10 = TcCLB.504199.20). Macaque antibody binding to individual beads in the Multiplex assays was detected with donkey anti-human IgG (H+L) conjugated to phycoerythrin (Jackson ImmunoResearch) in a 1:200 dilution.
# [2] = as above; type: in vivo, rhesus macaques (Macaca mulatta); conditions: treated animal T19
# Protocol: as §1
smiles,measurement,setting,value
Cc1c(C(=O)N[C@H](C(=O)OCC2CCOCC2)C(C)C)ccc2c1B(O)OC2 [AN15368],IgG levels to recombinant T. cruzi proteins over time,"[1]; treated NHP, up to 42 months after end of treatment",Declining IgG levels
same,IgG response to G10 (36),[1]; 2017-09-13,45.3
same,IgG response to Kn107 (20),[1]; 2017-09-13,5.3
same,IgG response to Tc1 (3),[1]; 2017-09-13,4561.8
same,IgG response to Tc2 (6),[1]; 2017-09-13,786.0
same,IgG response to Tc3 (11),[1]; 2017-09-13,-22.8
same,IgG response to Tc4 (16),[1]; 2017-09-13,35.3
same,IgG response to Tc5 (22),[1]; 2017-09-13,-9.5
same,IgG response to Tc7 (27),[1]; 2017-09-13,2389.8
same,IgG response to Tc8 (31),[1]; 2017-09-13,14652.0
same,IgG response to Tc11 (35),[1]; 2017-09-13,292.3
same,IgG response to Tc17 (51),[1]; 2017-09-13,1360.0
same,IgG response to Tc lysate (50),[1]; 2017-09-13,2591.5
same,IgG response to G10 (36),[1]; 2017-11-17,2.8
same,IgG response to Kn107 (20),[1]; 2017-11-17,7.0
same,IgG response to Tc1 (3),[1]; 2017-11-17,2671.5
same,IgG response to Tc2 (6),[1]; 2017-11-17,364.3
same,IgG response to Tc3 (11),[1]; 2017-11-17,25.0
same,IgG response to Tc4 (16),[1]; 2017-11-17,39.3
same,IgG response to Tc5 (22),[1]; 2017-11-17,-11.5
same,IgG response to Tc7 (27),[1]; 2017-11-17,1520.3
same,IgG response to Tc8 (31),[1]; 2017-11-17,12143.5
same,IgG response to Tc11 (35),[1]; 2017-11-17,154.0
same,IgG response to Tc17 (51),[1]; 2017-11-17,1317.5
same,IgG response to Tc lysate (50),[1]; 2017-11-17,1854.3
same,IgG response to G10 (36),[1]; 2017-12-06,38.0
same,IgG response to Kn107 (20),[1]; 2017-12-06,21.8
same,IgG response to Tc1 (3),[1]; 2017-12-06,2769.0
same,IgG response to Tc2 (6),[1]; 2017-12-06,433.8
same,IgG response to Tc3 (11),[1]; 2017-12-06,-25.8
same,IgG response to Tc4 (16),[1]; 2017-12-06,11.8
same,IgG response to Tc5 (22),[1]; 2017-12-06,33.5
same,IgG response to Tc7 (27),[1]; 2017-12-06,1546.5
same,IgG response to Tc8 (31),[1]; 2017-12-06,12008.3
same,IgG response to Tc11 (35),[1]; 2017-12-06,211.8
same,IgG response to Tc17 (51),[1]; 2017-12-06,1420.3
same,IgG response to Tc lysate (50),[1]; 2017-12-06,1538.8
same,IgG response to G10 (36),[1]; 2017-12-20,-55.8
same,IgG response to Kn107 (20),[1]; 2017-12-20,36.8
same,IgG response to Tc1 (3),[1]; 2017-12-20,2355.8
same,IgG response to Tc2 (6),[1]; 2017-12-20,410.8
same,IgG response to Tc3 (11),[1]; 2017-12-20,34.8
same,IgG response to Tc4 (16),[1]; 2017-12-20,99.0
same,IgG response to Tc5 (22),[1]; 2017-12-20,41.0
same,IgG response to Tc7 (27),[1]; 2017-12-20,1365.3
same,IgG response to Tc8 (31),[1]; 2017-12-20,9274.0
same,IgG response to Tc11 (35),[1]; 2017-12-20,116.0
same,IgG response to Tc17 (51),[1]; 2017-12-20,1322.5
same,IgG response to Tc lysate (50),[1]; 2017-12-20,1584.0
same,IgG response to G10 (36),[1]; 2018-01-09,36.5
same,IgG response to Kn107 (20),[1]; 2018-01-09,76.0
same,IgG response to Tc1 (3),[1]; 2018-01-09,3757.5
same,IgG response to Tc2 (6),[1]; 2018-01-09,565.5
same,IgG response to Tc3 (11),[1]; 2018-01-09,64.8
same,IgG response to Tc4 (16),[1]; 2018-01-09,81.0
same,IgG response to Tc5 (22),[1]; 2018-01-09,-22.0
same,IgG response to Tc7 (27),[1]; 2018-01-09,1442.3
same,IgG response to Tc8 (31),[1]; 2018-01-09,13021.3
same,IgG response to Tc11 (35),[1]; 2018-01-09,357.0
same,IgG response to Tc17 (51),[1]; 2018-01-09,2026.0
same,IgG response to Tc lysate (50),[1]; 2018-01-09,2194.3
same,IgG response to G10 (36),[1]; 2018-01-23,14.8
same,IgG response to Kn107 (20),[1]; 2018-01-23,214.8
same,IgG response to Tc1 (3),[1]; 2018-01-23,4009.3
same,IgG response to Tc2 (6),[1]; 2018-01-23,590.8
same,IgG response to Tc3 (11),[1]; 2018-01-23,-15.0
same,IgG response to Tc4 (16),[1]; 2018-01-23,80.0
same,IgG response to Tc5 (22),[1]; 2018-01-23,19.8
same,IgG response to Tc7 (27),[1]; 2018-01-23,2161.8
same,IgG response to Tc8 (31),[1]; 2018-01-23,13766.8
same,IgG response to Tc11 (35),[1]; 2018-01-23,289.0
same,IgG response to Tc17 (51),[1]; 2018-01-23,2186.0
same,IgG response to Tc lysate (50),[1]; 2018-01-23,2937.3
same,IgG response to G10 (36),[1]; 2018-02-27,83.0
same,IgG response to Kn107 (20),[1]; 2018-02-27,-14.5
same,IgG response to Tc1 (3),[1]; 2018-02-27,2826.0
same,IgG response to Tc2 (6),[1]; 2018-02-27,413.5
same,IgG response to Tc3 (11),[1]; 2018-02-27,17.5
same,IgG response to Tc4 (16),[1]; 2018-02-27,111.0
same,IgG response to Tc5 (22),[1]; 2018-02-27,6.8
same,IgG response to Tc7 (27),[1]; 2018-02-27,1831.8
same,IgG response to Tc8 (31),[1]; 2018-02-27,11208.3
same,IgG response to Tc11 (35),[1]; 2018-02-27,163.8
same,IgG response to Tc17 (51),[1]; 2018-02-27,1943.5
same,IgG response to Tc lysate (50),[1]; 2018-02-27,1833.0
same,IgG response to G10 (36),[1]; 2018-03-28,-25.5
same,IgG response to Kn107 (20),[1]; 2018-03-28,5.5
same,IgG response to Tc1 (3),[1]; 2018-03-28,1762.3
same,IgG response to Tc2 (6),[1]; 2018-03-28,386.3
same,IgG response to Tc3 (11),[1]; 2018-03-28,60.0
same,IgG response to Tc4 (16),[1]; 2018-03-28,6.0
same,IgG response to Tc5 (22),[1]; 2018-03-28,32.5
same,IgG response to Tc7 (27),[1]; 2018-03-28,1344.3
same,IgG response to Tc8 (31),[1]; 2018-03-28,8779.3
same,IgG response to Tc11 (35),[1]; 2018-03-28,66.5
same,IgG response to Tc17 (51),[1]; 2018-03-28,1378.0
same,IgG response to Tc lysate (50),[1]; 2018-03-28,1572.0
same,IgG response to G10 (36),[1]; 2019-02-19,-6.3
same,IgG response to Kn107 (20),[1]; 2019-02-19,9.8
same,IgG response to Tc1 (3),[1]; 2019-02-19,1092.5
same,IgG response to Tc2 (6),[1]; 2019-02-19,189.8
same,IgG response to Tc3 (11),[1]; 2019-02-19,63.8
same,IgG response to Tc4 (16),[1]; 2019-02-19,9.0
same,IgG response to Tc5 (22),[1]; 2019-02-19,22.0
same,IgG response to Tc7 (27),[1]; 2019-02-19,910.3
same,IgG response to Tc8 (31),[1]; 2019-02-19,5960.0
same,IgG response to Tc11 (35),[1]; 2019-02-19,51.0
same,IgG response to Tc17 (51),[1]; 2019-02-19,927.0
same,IgG response to Tc lysate (50),[1]; 2019-02-19,1211.8
same,IgG response to G10 (36),[1]; 2020-06-18,-46.3
same,IgG response to Kn107 (20),[1]; 2020-06-18,15.0
same,IgG response to Tc1 (3),[1]; 2020-06-18,454.3
same,IgG response to Tc2 (6),[1]; 2020-06-18,7.3
same,IgG response to Tc3 (11),[1]; 2020-06-18,76.3
same,IgG response to Tc4 (16),[1]; 2020-06-18,6.0
same,IgG response to Tc5 (22),[1]; 2020-06-18,2.0
same,IgG response to Tc7 (27),[1]; 2020-06-18,373.3
same,IgG response to Tc8 (31),[1]; 2020-06-18,3159.8
same,IgG response to Tc11 (35),[1]; 2020-06-18,48.5
same,IgG response to Tc17 (51),[1]; 2020-06-18,793.0
same,IgG response to Tc lysate (50),[1]; 2020-06-18,640.8
same,IgG response to G10 (36),[1]; 2021-05-20,11.0
same,IgG response to Kn107 (20),[1]; 2021-05-20,65.5
same,IgG response to Tc1 (3),[1]; 2021-05-20,42.3
same,IgG response to Tc2 (6),[1]; 2021-05-20,-7.8
same,IgG response to Tc3 (11),[1]; 2021-05-20,3.8
same,IgG response to Tc4 (16),[1]; 2021-05-20,-20.3
same,IgG response to Tc5 (22),[1]; 2021-05-20,1.5
same,IgG response to Tc7 (27),[1]; 2021-05-20,293.3
same,IgG response to Tc8 (31),[1]; 2021-05-20,1814.0
same,IgG response to Tc11 (35),[1]; 2021-05-20,133.3
same,IgG response to Tc17 (51),[1]; 2021-05-20,399.3
same,IgG response to Tc lysate (50),[1]; 2021-05-20,384.5
same,IgG response to GFP (58),[2]; 2017-09-13,58.5
same,IgG response to GFP (58),[2]; 2017-11-17,-25.0
same,IgG response to GFP (58),[2]; 2017-12-06,27.0
same,IgG response to GFP (58),[2]; 2017-12-20,-24.3
same,IgG response to GFP (58),[2]; 2018-01-09,103.5
same,IgG response to GFP (58),[2]; 2018-01-23,-17.8
same,IgG response to GFP (58),[2]; 2018-02-27,-110.5
same,IgG response to GFP (58),[2]; 2018-03-28,-15.8
same,IgG response to GFP (58),[2]; 2019-02-19,-19.0
same,IgG response to GFP (58),[2]; 2020-06-18,-50.3
same,IgG response to GFP (58),[2]; 2021-05-20,-25.5
